Laboratory results as given in patent publication US12433835B2, “Cosmetic composition and treatment for treating skin sagging” (Sederma, priority 2020, dated 2025).

System: Fibroblasts
Assay: Contraction of collagen lattice by MGO-stressed fibroblasts
Assay type: cell-based
Conditions: MGO contact 2 days, with or without extract at 0.5%; control without MGO = 100%; n=3
From the text: The contraction function of fibroblasts is important for ensuring a good elasticity to the skin. The application on fibroblasts of the glycating substance (MGO: methylglyoxal) allows to mimic in accelerate the loss of contractility of fibroblasts occurring during aging. Fibroblasts were brought into contact with the MGO for 2 days, in nontoxic quantity, with or without the extract according to the invention. After this contact, the cells were included in a collagen gel to form a dermis equivalent called lattice. Fibroblasts anchor themselves to the collagens and begin to contract the gel like they do in the skin. This contraction was followed after 16 h and measured using an ImageQuant LAS4000 imager by following the modification on the gel surface.

Structure (SMILES): CC(=O)C=O [MGO, methylglyoxal]
- Gel contraction at 16 h (%): 59.9%
